We go through three compounds from patent US20230302140A1, “CONJUGATE OF A SINGLE DOMAIN ANTIBODY, A SAPONIN AND AN EFFECTOR MOLECULE, PHARMACEUTICAL COMPOSITION COMPRISING THE SAME, THERAPEUTIC USE OF SAID PHARMACEUTICAL COMPOSITION” (SAPREME TECHNOLOGIES B.V., priority 2020, published 2023).

A value given as a limit tells only on which side of the number the result lay.

One experiment concerns CaSki cells. Description: Cell killing (MTS cell viability) assay. In kind it is cell-based, human. The protocol: (§1) Cells were seeded in a 96 well plate at 5.000-1 0.000 c/w in 100 µL/well and incubated overnight at 37° C. […] The media was removed from the cell culture plate and replaced by 180 µL culture media, followed by the addition of 20 µL treatment-mix/well. […] In the case that endosomal acidification inhibitors (chloroquine (Sigma Aldrich) or bafilomycin A1 (Enzo Life Sciences)) were used, the cell culture media in step 1 of treatment was replaced by 180 µL media containing 1 µM chloroquine or 0.2 µM bafilomycin A1. The plate was incubated for 1 hour at 37° C., before the 10x treatment-mix samples were added. The remaining incubation and treatment steps were performed according to standard procedures known in the field.
(§2) After treatment the cells were incubated for 72 hr at 37° C. before the cell viability was determined by a MTS-assay, performed according to the manufacturer’s instruction (CellTiter 96® AQueous One Solution Cell Proliferation Assay, Promega). Briefly, the MTS solution was diluted 20x in DMEM without phenol red (PAN-Biotech GmbH) supplemented with 10% FBS (PAN-Biotech GmbH). The cells were washed once with 200 µL PBS per well, after which 100 µL diluted MTS solution was added per well. The plate was incubated for approximately 20-30 minutes at 37° C. Subsequently, the optical density at 492 nm was measured on a Thermo Scientific Multiskan FC plate reader (Thermo Scientific). For quantification the background signal of ‘medium only’ wells was subtracted from all other wells, before the ratio of […].

The next experiment has as its system MDA-MB-468 cells. As to the kind of experiment: Cell killing (MTS cell viability) assay. It is filed as cell-based, human. The protocol:
(§3) After treatment the cells were incubated for 72 hr at 37° C. before the cell viability was determined by a MTS-assay, performed according to the manufacturer’s instruction (CellTiter 96® AQueous One Solution Cell Proliferation Assay, Promega). Briefly, the MTS solution was diluted 20× in DMEM without phenol red (PAN-Biotech GmbH) supplemented with 10% FBS. The cells were washed once with 200 µL/PBS well, after which 100 µL diluted MTS solution was added/well. The plate was incubated for approximately 20-30 minutes at 37° C. Subsequently, the OD at 492 nm was measured on a Thermo Scientific Multiskan FC plate reader (Thermo Scientific). For quantification the background signal of ‘medium only’ wells was subtracted from all other wells, before the cell viability percentage of treated/untreated cells was calculated, by dividing the background corrected signal of treated wells over the background corrected signal of the untreated wells (x 100).
as §1, §2

The next experiment deals with A2058 cells. Description: Cell killing (MTS cell viability) assay. It is filed as cell-based, human. The procedure: as §3, §1, §2
A further experiment concerns SK-BR-3 cells. As to the kind of experiment: Cell killing (MTS cell viability) assay. It is filed as cell-based, human. The protocol:
as §3, §1, §2

In a further experiment the test system is endosomal acidification. Description: Cell viability assay with endosomal acidification inhibitors. In kind it is cell-based. The conditions noted are these: targeted 2-component system; chloroquine or bafilomycin A1. The procedure: as §1
The test system of the next experiment is HeLa cells. As to the kind of experiment: Cell killing (MTS cell viability) assay. It is filed as cell-based, human. The conditions noted are these: +1500 nM SO1861 (unconjugated). The procedure: as §1, §2
The test system of a further experiment is JIMT-1 cells. As to the kind of experiment: Cell killing (MTS cell viability) assay. It is filed as cell-based, human. The conditions noted are these: +1500 nM SO1861 (unconjugated). The protocol:
as §1, §2

The target in the next experiment is human EGFR (human) (UniProt P00533). As to the kind of experiment: cell-based or functional assay.
[1] abbreviates: +50 pM CD71VHH-dianthin (fixed).
The mark [2] stands for this setting: +50 pM VHH-EGFR-dianthin (fixed).
The mark [3] stands for this setting: +50 pM VHH-HER2-dianthin (fixed).

One may read the IC50 as the midpoint of a concentration-inhibition curve. As to `CC(=O)O[C@H]1[C@H](O[C@@H]2OC[C@@H](O)[C@H](O)[C@H]2O)[C@@H](O)[C@H](O[C@@H]2[C@H](O)[C@@H](O[C@@H]3O[C@@H](C)[C@H](O[C@@H]4OC[C@@H](O)[C@H](O[C@@H]5O[C@H](CO)[C@@H](O)[C@H](O)[C@H]5O)[C@H]4O)[C@@H](O)[C@H]3O)[C@H](OC(=O)[C@]34CCC(C)(C)C[C@H]3C3=CC[C@@H]5[C@@]6(C)CC[C@H](O[C@@H]7O[C@H](C(=O)O)[C@@H](O)[C@H](O[C@@H]8OC[C@@H](O)[C@H](O)[C@H]8O)[C@H]7O[C@@H]7O[C@H](CO)[C@H](O)[C@H](O)[C@H]7O)[C@@](C)(C=O)[C@@H]6CC[C@@]5(C)[C@]3(C)C[C@H]4O)O[C@@H]2C)O[C@@H]1C` [SO1861], the IC50 with CaSki cells (+10 pM cetuximab-saporin (fixed), calculated on concentration SO1861) is 700 nM; with CaSki cells (+50 pM trastuzumab-saporin (fixed), Ex.9/Table A6: calculated on concentration SO1861), at least 1000 nM; in the experiment on MDA-MB-468 cells (setting [1]), 200 nM; with MDA-MB-468 cells (setting [2]), 300 nM; in the experiment with A2058 cells (+50 pM VHH-CD71-dianthin (fixed)), 200 nM; with SK-BR-3 cells (+1.5 pM EGF-dianthin (fixed), Ex.9/Table A6: calculated on concentration SO1861), 800 nM. For the same compound, the IC50 with SK-BR-3 cells (+10 pM EGF-dianthin (fixed), Table A6: calculated on concentration SO1861) is 650 nM; in the experiment with SK-BR-3 cells (setting [1]) it was 200 nM; in the experiment with SK-BR-3 cells (setting [2]), 700 nM; in the experiment on SK-BR-3 cells (setting [3]), 200 nM. Besides, the IC50 cell killing result with MDA-MB-468 cells (setting [3]) was “no enhanced activity compared to SO1861alone”; with A2058 cells (setting [2]), “no activity”. The “SO1861 function with endosomal acidification inhibitors” value in the experiment with endosomal acidification is “function is reduced when acidification of endosomes is blocked”.

Turning to Saporin, the IC50 was 0.03 nM in the experiment with HeLa cells, 0.03 nM in the experiment with JIMT-1 cells and 0.015 nM with CaSki cells (+1500 nM SO1861 (unconjugated)).

Take “cetuximab-saporin (monoclonal antibody recognizing and binding EGFR, conjugated to the protein toxin, saporin)”: in the experiment with human EGFR (human), the cell killing (MTS) on MDA-MB-468 cells (EGFR++), cetuximab-saporin alone, IC50 worked out at 0.3 nM.
